Tests used:
Type in all cases: cell-based
TRPV3 I644W = target: T1, TRPV3 I644W (Mus musculus, UniProt Q8K424, I644W); assay: Whole-cell recording of TRPV3 mutant I644W in HEK 293T cells; details: 2-APB (1 mM)-evoked, –60 mV, read-out: IC50 for inhibition of TRPV3 mutant
T1 construct: expressed in transfected cells; host or cells: HEK 293T
Text: (§1) The WT mouse TRPV3 (mTRPV3), human TRPV3 (hTRPV3), rat TRPV1, rat TRPV2, rat TRPM8, and mouse TRPA1 cDNAs were generously provided by Dr. Feng Qin (State University of New York at Buffalo, Buffalo, USA). The GFP-mTRPV3 WT and the mutants (mTRPV3-G573S and mTRPV3-G573C) in pcDNA4/TO vector were gifts from Dr. Michael X Zhu (The University of Texas Health Science Center at Houston, Houston, USA). The WT fTRPV3 was kindly provided by Dr. Makoto Tominaga (Department of Physiological Sciences, SOKENDAI, Okazaki, Japan). All mutations were made using the overlap-extension polymerase chain reaction method as previously described ([Tian et al., 2019]). The resulting mutations were then verified by DNA sequencing. […]
(§2) Conventional whole-cell and excised patch-clamp recording methods were used. […] For a subset of recordings, currents were amplified using an Axopatch 200B amplifier (Molecular Devices, Sunnyvale, CA) and recorded through a BNC-2090/MIO acquisition system (National Instruments, Austin, TX) using QStudio developed by Dr. Feng Qin at State University of New York at Buffalo. […] As determined by the conductance tests, the solution around a patch under study was fully controlled by the application of a flow rate of 100 μl/min or greater. […]

TRPV3 F666A = target: T2, TRPV3 F666A (Mus musculus, UniProt Q8K424, F666A); assay: Whole-cell recording of TRPV3 mutant F666A in HEK 293T cells; details: 2-APB (1 mM)-evoked, –60 mV, read-out: IC50 for inhibition of TRPV3 mutant
T2 construct: expressed in transfected cells; host or cells: HEK 293T
T2 sequence (Q8K424 whole entry F666A): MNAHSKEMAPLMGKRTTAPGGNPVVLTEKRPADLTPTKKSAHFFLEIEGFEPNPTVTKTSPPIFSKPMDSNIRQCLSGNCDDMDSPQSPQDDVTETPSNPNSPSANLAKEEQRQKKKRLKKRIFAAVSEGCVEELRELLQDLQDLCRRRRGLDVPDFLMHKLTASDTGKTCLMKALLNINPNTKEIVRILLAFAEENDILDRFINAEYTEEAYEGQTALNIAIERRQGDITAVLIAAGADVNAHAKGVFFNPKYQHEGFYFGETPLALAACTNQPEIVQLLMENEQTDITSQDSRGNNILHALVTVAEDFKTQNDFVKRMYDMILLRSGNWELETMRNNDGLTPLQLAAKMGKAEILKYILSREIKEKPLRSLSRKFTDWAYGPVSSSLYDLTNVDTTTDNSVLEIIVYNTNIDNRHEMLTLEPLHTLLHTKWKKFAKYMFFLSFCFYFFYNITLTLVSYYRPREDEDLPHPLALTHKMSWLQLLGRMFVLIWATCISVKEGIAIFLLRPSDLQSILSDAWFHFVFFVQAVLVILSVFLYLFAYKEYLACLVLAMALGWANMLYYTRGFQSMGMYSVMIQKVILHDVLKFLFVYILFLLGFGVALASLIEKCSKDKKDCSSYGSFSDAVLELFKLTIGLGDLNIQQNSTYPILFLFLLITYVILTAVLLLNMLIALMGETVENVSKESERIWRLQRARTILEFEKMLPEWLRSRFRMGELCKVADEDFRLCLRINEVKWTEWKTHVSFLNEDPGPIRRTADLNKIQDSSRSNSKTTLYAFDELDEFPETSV
Text: as §1, §2

TRPV3 L642A = target: T3, TRPV3 L642A (Mus musculus, UniProt Q8K424, L642A); assay: Whole-cell recording of TRPV3 mutant L642A in HEK 293T cells; details: 2-APB (1 mM)-evoked, –60 mV, read-out: IC50 for inhibition of TRPV3 mutant
T3 construct: expressed in transfected cells; host or cells: HEK 293T
T3 sequence (Q8K424 whole entry L642A): as the sequence (Q8K424 whole entry F666A) above, with L642A, A666F counted along it
Text: as §1, §2

TRPV2 = target: T4, TRPV2 (Rattus norvegicus, UniProt Q9WUD2); assay: Whole-cell recording of 2-APB-activated TRPV2 in HEK 293T cells
T4 construct: expressed in transfected cells; host or cells: HEK 293T
T4 sequence (Q9WUD2 whole entry): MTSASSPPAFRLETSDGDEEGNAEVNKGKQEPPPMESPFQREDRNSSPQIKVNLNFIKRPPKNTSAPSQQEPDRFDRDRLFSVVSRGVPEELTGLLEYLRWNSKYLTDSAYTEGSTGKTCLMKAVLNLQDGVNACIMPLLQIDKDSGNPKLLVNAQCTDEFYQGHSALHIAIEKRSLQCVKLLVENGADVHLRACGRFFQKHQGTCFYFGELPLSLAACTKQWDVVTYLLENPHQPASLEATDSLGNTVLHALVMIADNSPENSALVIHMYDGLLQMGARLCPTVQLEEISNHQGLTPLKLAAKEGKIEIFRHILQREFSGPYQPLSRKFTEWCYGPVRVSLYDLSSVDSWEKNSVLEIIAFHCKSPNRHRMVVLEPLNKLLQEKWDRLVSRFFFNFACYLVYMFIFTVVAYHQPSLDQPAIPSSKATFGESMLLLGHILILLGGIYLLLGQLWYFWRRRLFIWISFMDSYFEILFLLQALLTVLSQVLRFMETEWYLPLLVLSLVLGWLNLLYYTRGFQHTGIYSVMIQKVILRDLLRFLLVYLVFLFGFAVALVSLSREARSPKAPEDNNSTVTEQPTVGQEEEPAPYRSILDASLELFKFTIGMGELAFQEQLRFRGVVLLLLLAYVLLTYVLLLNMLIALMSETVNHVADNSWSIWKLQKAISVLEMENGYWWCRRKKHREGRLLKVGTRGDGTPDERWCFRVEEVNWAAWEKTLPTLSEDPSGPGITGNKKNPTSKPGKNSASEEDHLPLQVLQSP
Text: as §1, §2

T1 sequence (Q8K424 whole entry I644W): as the sequence (Q8K424 whole entry F666A) above, with I644W, A666F counted along it

IC50 (TRPV3 I644W): 26.1 ± 2.8 µM | IC50 (TRPV3 F666A): 414 ± 15.7 µM | IC50 (TRPV3 L642A): 0.25 ± 0.02 µM | Hill coefficient nH (TRPV2): 2.9 ± 0.50 | reduction in current amplitude (TRPV2; 10 μM dyclonine, 2-APB-activated): 6% ± 1%
SMILES: CCCCOc1ccc(C(=O)CCN2CCCCC2)cc1 [dyclonine]

Reference: paper PMC8112869, “Therapeutic inhibition of keratinocyte TRPV3 sensory channel by local anesthetic dyclonine” (eLife, 2021)
